Columns and labels:
[1] = tested on: Puccinia recondita f. sp. tritici; assay: Fungicidal activity against Puccinia recondita f. sp. tritici / wheat / leaf disc preventative (brown rust); type: in vivo; conditions: foliar, 200 ppm in the applied formulation, wheat leaf segments cv. Kanzler, preventative (inoculated 1 day after application), assessed 7 to 9 days after application, read-out: disease control compared to untreated control leaf disks
Method: (§1) Leaf disks or leaf segments of various plant species are cut from plants grown in a greenhouse. The cut leaf disks or segments are placed in multiwell plates (24-well format) onto water agar. The leaf disks are sprayed with a test solution before (preventative) or after (curative) inoculation. Compounds to be tested are prepared as DMSO solutions (max. 10 mg/ml) which are diluted to the appropriate concentration with 0.025% Tween20 just before spraying. The inoculated leaf disks or segments are incubated under defined conditions (temperature, relative humidity, light, etc.) according to the respective test system. A single evaluation of disease level is carried out 3 to 14 days after inoculation, depending on the pathosystem. Percent disease control relative to the untreated check leaf disks or segments is then calculated. General Examples of Liquid Culture Tests in Well Plates:
Example 1: Fungicidal Activity Against Puccinia recondita f. sp. tritici/Wheat/Leaf Disc Preventative (Brown Rust)
Wheat leaf segments cv. Kanzler were placed on agar in multiwell plates (24-well format) and sprayed with the formulated test compound diluted in water. The leaf disks were inoculated with a spore suspension of the fungus 1 day after application. The inoculated leaf segments were incubated at 19C and 75% relative humidity (rh) under a light regime of 12 hours light/12 hours darkness in a climate cabinet and the activity of a compound was assessed as percent disease control compared to untreated when an appropriate level of disease damage appears in untreated check leaf segments (7 to 9 days after application).
(§2) The following compounds at 200 ppm in the applied formulation give at least 80% disease control in this test when compared to untreated control leaf disks under the same conditions, which show extensive disease development.

[2] = tested on: Puccinia recondita f. sp. tritici; assay: Fungicidal activity against Puccinia recondita f. sp. tritici / wheat / leaf disc curative (brown rust); type: in vivo; conditions: foliar, 200 ppm in the applied formulation, wheat leaf segments cv. Kanzler, curative (applied 1 day after inoculation), assessed 6 to 8 days after application, read-out: disease control compared to untreated control leaf disks
Method: as §1
Example 2: Fungicidal Activity Against Puccinia recondita f. sp. Tritici/Wheat/Leaf Disc Curative (Brown Rust)
Wheat leaf segments cv. Kanzler are placed on agar in multiwell plates (24-well format). The leaf segments are then inoculated with a spore suspension of the fungus. Plates were stored in darkness at 19° C. and 75% relative humidity. The formulated test compound diluted in water was applied 1 day after inoculation. The leaf segments were incubated at 19° C. and 75% relative humidity under a light regime of 12 hours light/12 hours darkness in a climate cabinet and the activity of a compound was assessed as percent disease control compared to untreated when an appropriate level of disease damage appears in untreated check leaf segments (6 to 8 days after application).
as §2

Phakopsora pachyrhizi = assay: Fungicidal activity against Phakopsora pachyrhizi / soybean / leaf disc preventative (Asian soybean rust); type: in vivo; conditions: foliar, 200 ppm in the applied formulation, soybean leaf disks, preventative (inoculated one day after application), assessed 12 to 14 days after application, read-out: disease control compared to untreated control leaf disks
Method: as §1
Example 3: Fungicidal Activity Against Phakopsora pachyrhizi/Soybean/Leaf Disc Preventative (Asian Soybean Rust)
Soybean leaf disks are placed on water agar in multiwell plates (24-well format) and sprayed with the formulated test compound diluted in water. One day after application leaf discs are inoculated by spraying a spore suspension on the lower leaf surface. After an incubation period in a climate cabinet of 24-36 hours in darkness at 20° C. and 75% rh leaf disc are kept at 20° C. with 12 h light/day and 75% rh. The activity of a compound is assessed as percent disease control compared to untreated when an appropriate level of disease damage appears in untreated check leaf disks (12 to 14 days after application).
as §2

[3] = tested on: Glomerella laqenarium (Colletotrichum lagenarium); assay: Fungicidal activity against Glomerella lagenarium (Colletotrichum lagenarium) liquid culture / cucumber / preventative (anthracnose); type: cell-based; conditions: Colletotrichum orbiculare; 20 ppm in the applied formulation; liquid culture in PDB, 24° C., 3 to 4 days after application; read-out: disease control compared to untreated control (inhibition of growth measured photometrically)
Method: Mycelia fragments or conidia suspensions of a fungus prepared either freshly from liquid cultures of the fungus or from cryogenic storage, are directly mixed into nutrient broth. DMSO solutions of the test compound (max. 10 mg/ml) are diluted with 0.025% Tween20 by a factor of 50 and 10 μl of this solution is pipetted into a microtiter plate (96-well format). The nutrient broth containing the fungal spores/mycelia fragments is then added to give an end concentration of the tested compound. The test plates are incubated in the dark at 24° C. and 96% relative humidity. The inhibition of fungal growth is determined photometrically after 2 to 7 days, depending on the pathosystem, and percent antifungal activity relative to the untreated check is calculated.
Example 4: Fungicidal Activity Against Glomerella laqenarium (Colletotrichum lagenarium) Liquid Culture/Cucumber/Preventative (Anthracnose)
Conidia of the fungus from cryogenic storage are directly mixed into nutrient broth (PDB—potato dextrose broth). After placing a (DMSO) solution of test compound into a microtiter plate (96-well format), the nutrient broth containing the fungal spores is added. The test plates are incubated at 24° C. and the inhibition of growth is measured photometrically 3 to 4 days after application.
The following compounds at 20 ppm in the applied formulation give at least 80% disease control in this test when compared to untreated control under the same conditions, which show extensive disease development.

CC(C#N)(NC(=O)c1ccc(-c2noc(C(F)(F)F)n2)cc1F)C1CC1 (centres unmarked) [Compound 2b.9, N-(1-cyano-1-cyclopropyl-ethyl)-2-fluoro-4-[5-(trifluoromethyl)-1,2,4-oxadiazol-3-yl]benzamide]
≥ 80%: pest or weed control at 200 ppm [1] | pest or weed control at 200 ppm [2] | pest or weed control at 200 ppm (Phakopsora pachyrhizi)

O=C(NCC1CC1)c1ccc(-c2noc(C(F)(F)F)n2)cc1Cl [Compound 2b.13, 2-chloro-N-(cyclopropyl-methyl)-4-[5-(trifluoromethyl)-1,2,4-oxadiazol-3-yl]benzamide]
≥ 80%: pest or weed control at 200 ppm [1] | pest or weed control at 200 ppm [2] | pest or weed control at 200 ppm (Phakopsora pachyrhizi) | inhibition at 20 ppm [3]

CCC(C)NC(=O)c1ccc(-c2noc(C(F)(F)F)n2)cc1 (centres unmarked) [Compound 3a.7, N-sec-butyl-4-[5-(trifluoromethyl)-1,2,4-oxadiazol-3-yl]benzamide]
≥ 80%: pest or weed control at 200 ppm [1] | pest or weed control at 200 ppm [2] | pest or weed control at 200 ppm (Phakopsora pachyrhizi) | inhibition at 20 ppm [3]

CCC(COC)NC(=O)c1ccc(-c2noc(C(F)(F)F)n2)cc1 (centres unmarked) [Compound 3a.9, N-[1-(methoxymethyl)propyl]-4-[5-(trifluoromethyl)-1,2,4-oxadiazol-3-yl]benzamide]
≥ 80%: pest or weed control at 200 ppm [1] | pest or weed control at 200 ppm [2] | pest or weed control at 200 ppm (Phakopsora pachyrhizi) | inhibition at 20 ppm [3]

CC(O)CNC(=O)c1ccc(-c2noc(C(F)(F)F)n2)cc1 (centres unmarked) [Compound 3a.10, N-(2-hydroxypropyl)-4-[5-(trifluoromethyl)-1,2,4-oxadiazol-3-yl]benzamide]
≥ 80%: pest or weed control at 200 ppm [1] | pest or weed control at 200 ppm [2] | pest or weed control at 200 ppm (Phakopsora pachyrhizi) | inhibition at 20 ppm [3]

CCOC(C)CNC(=O)c1ccc(-c2noc(C(F)(F)F)n2)cc1 (centres unmarked) [Compound 3a.11, N-(2-ethoxypropyl)-4-[5-(trifluoromethyl)-1,2,4-oxadiazol-3-yl]benzamide]
≥ 80%: pest or weed control at 200 ppm [1] | pest or weed control at 200 ppm [2] | pest or weed control at 200 ppm (Phakopsora pachyrhizi) | inhibition at 20 ppm [3]

COCCN(C(=O)c1ccc(-c2noc(C(F)(F)F)n2)cc1)C(C)C [Compound 3a.12, N-isopropyl-N-(2-methoxyethyl)-4-[5-(trifluoromethyl)-1,2,4-oxadiazol-3-yl]benzamide]
≥ 80%: pest or weed control at 200 ppm [1] | pest or weed control at 200 ppm [2] | pest or weed control at 200 ppm (Phakopsora pachyrhizi) | inhibition at 20 ppm [3]

CC(C)CN(C)C(=O)c1ccc(-c2noc(C(F)(F)F)n2)cc1 [Compound 3a.13, N-isobutyl-N-methyl-4-[5-(trifluoromethyl)-1,2,4-oxadiazol-3-yl]benzamide]
≥ 80%: pest or weed control at 200 ppm [1] | pest or weed control at 200 ppm [2] | pest or weed control at 200 ppm (Phakopsora pachyrhizi) | inhibition at 20 ppm [3]

CCC(O)CNC(=O)c1ccc(-c2noc(C(F)(F)F)n2)cc1 (centres unmarked) [Compound 3a.14, N-(2-hydroxybutyl)-4-[5-(trifluoromethyl)-1,2,4-oxadiazol-3-yl]benzamide]
≥ 80%: pest or weed control at 200 ppm [1] | pest or weed control at 200 ppm [2] | pest or weed control at 200 ppm (Phakopsora pachyrhizi) | inhibition at 20 ppm [3]

CC(=O)CC(C)(C)NC(=O)c1ccc(-c2noc(C(F)(F)F)n2)cc1 [Compound 3a.16, N-(1,1-dimethyl-3-oxo-butyl)-4-[5-(trifluoromethyl)-1,2,4-oxadiazol-3-yl]benzamide]
≥ 80%: pest or weed control at 200 ppm [1] | pest or weed control at 200 ppm [2] | pest or weed control at 200 ppm (Phakopsora pachyrhizi) | inhibition at 20 ppm [3]

CC(C)C(CO)NC(=O)c1ccc(-c2noc(C(F)(F)F)n2)cc1 (centres unmarked) [Compound 3a.18, N-[1-(hydroxymethyl)-2-methyl-propyl]-4-[5-(trifluoromethyl)-1,2,4-oxadiazol-3-yl]benzamide]
≥ 80%: pest or weed control at 200 ppm [2] | pest or weed control at 200 ppm (Phakopsora pachyrhizi) | inhibition at 20 ppm [3]

O=C(NCCCCCl)c1ccc(-c2noc(C(F)(F)F)n2)cc1 [Compound 3a.20, N-(4-chlorobutyl)-4-[5-(trifluoromethyl)-1,2,4-oxadiazol-3-yl]benzamide]
≥ 80%: pest or weed control at 200 ppm [1] | pest or weed control at 200 ppm [2] | pest or weed control at 200 ppm (Phakopsora pachyrhizi) | inhibition at 20 ppm [3]

CC(CCO)NC(=O)c1ccc(-c2noc(C(F)(F)F)n2)cc1F (centres unmarked) [Compound 3b.17, 2-fluoro-N-(3-hydroxy-1-methyl-propyl)-4-[5-(trifluoromethyl)-1,2,4-oxadiazol-3-yl]benzamide]
≥ 80%: pest or weed control at 200 ppm [2] | pest or weed control at 200 ppm (Phakopsora pachyrhizi)

CC(C)C(CO)NC(=O)c1ccc(-c2noc(C(F)(F)F)n2)cc1F (centres unmarked) [Compound 3b.18, 2-fluoro-N-[1-(hydroxymethyl)-2-methyl-propyl]-4-[5-(trifluoromethyl)-1,2,4-oxadiazol-3-yl]benzamide]
≥ 80%: pest or weed control at 200 ppm [2] | inhibition at 20 ppm [3]

O=C(NCCCO)c1ccc(-c2noc(C(F)(F)F)n2)cc1F [Compound 3b.23, 2-fluoro-N-(3-hydroxypropyl)-4-[5-(trifluoromethyl)-1,2,4-oxadiazol-3-yl]benzamide]
≥ 80%: pest or weed control at 200 ppm [2] | pest or weed control at 200 ppm (Phakopsora pachyrhizi) | inhibition at 20 ppm [3]

CCOC(=O)CC(C)NC(=O)c1ccc(-c2noc(C(F)(F)F)n2)cc1F (centres unmarked) [Compound 3b.28, ethyl 3-[[2-fluoro-4-[5-(trifluoromethyl)-1,2,4-oxadiazol-3-yl]benzoyl]amino]butanoate]
≥ 80%: pest or weed control at 200 ppm [1] | pest or weed control at 200 ppm [2] | inhibition at 20 ppm [3]

CCCCCCNC(=O)c1ccc(-c2noc(C(F)(F)F)n2)cc1F [Compound 3b.31, 2-fluoro-N-hexyl-4-[5-(trifluoromethyl)-1,2,4-oxadiazol-3-yl]benzamide]
≥ 80%: pest or weed control at 200 ppm [2] | pest or weed control at 200 ppm (Phakopsora pachyrhizi) | inhibition at 20 ppm [3]

CN(C(=O)c1ccc(-c2noc(C(F)(F)F)n2)cc1)c1ccccn1 [Compound 5a.4, N-methyl-N-(2-pyridyl)-4-[5-(trifluoromethyl)-1,2,4-oxadiazol-3-yl]benzamide]
≥ 80%: pest or weed control at 200 ppm [2] | pest or weed control at 200 ppm (Phakopsora pachyrhizi) | inhibition at 20 ppm [3]
